Measured values: patent publication US11007183B2, “Cancer treatments using combinations of PI3K/Akt pathway and ERK inhibitors” (BIOMED VALLEY DISCOVERIES, INC., priority 2013, dated 2021)
“Also recorded” adds a separate entry of the source.

Legend:
[1] = system: MAPK signaling in HCT-116 cells; assay: Western blot of MAPK signaling markers; assay type: cell-based, human; conditions: HCT116 KRAS mutant cell line, 4 hours, micromolar concentrations
Experimental: For Western blot studies, HCT116 cells (5×10^6) were seeded into 10 cm dishes in McCoy's 5A plus 10% FBS. A375 cells (2.5×10^6) were seeded into 10 cm dishes in DMEM plus 10% FBS. Cells were allowed to adhere overnight prior to addition of the indicated amount of test compound (BVD-523) or vehicle control. Cells were treated for either 4 or 24 hours before isolation of whole-cell protein lysates, as specified below. Cells were harvested by trypsinisation, pelleted and snap frozen. Lysates were prepared with RIPA (Radio-Immunoprecipitation Assay) buffer, clarified by centrifugation and quantitated by bicinchoninic acid assay (BCA) assay. 20-50 μg of protein was resolved by SDS-PAGE electrophoresis, blotted onto PVDF membrane and probed using the antibodies detailed in Table 9 (for the 4-hour treatment) and Table 10 (for the 24-hour treatment) below.

parental HCT116 cells = assay: Combination proliferation assay (Loewe/Bliss); assay type: cell-based; conditions: Homo sapiens, HCT-116, 2.5% serum, mean of n=4 separate combinations, read-out: IC50 (single agent, derived from combination assay plates)
Experimental: Cells were seeded into triplicate 96-well plates at the densities indicated in Table 11 in McCoy's 5A media containing 2.5% FBS and allowed to adhere overnight prior to addition of test compound or vehicle control. Combinations were tested using either a 10×8 or for the follow-up HCT116 study a 3×1 dose matrix.
Test compounds were incubated with the cells for 72 h at 37° C., 5% CO2 in a humidified atmosphere. CellTiter-Glo® reagent (Promega, Madison, Wis.) was added according to manufacturer's instructions and luminescence detected using the BMG FLUOstar plate reader (BMG Labtech, Ortenberg, Germany). The average media only background value was deducted and the data analysed.
For the 10×8 combination assays the combination interactions across the dose matrix were determined by the Loewe Additivity and Bliss independence models using Chalice™ Combination Analysis Software (Horizon Discovery Group, Cambridge, Mass.) as outlined in the user manual (available at chalice.horizondiscovery.com/chalice-portal/documentation/analyzer/home.jsp). Synergy is determined by comparing the experimentally observed level of inhibition at each combination point with the value expected for additivity, which is derived from the single-agent responses along the edges of the matrix. […]

HCT116 Parental = assay: Single agent proliferation assay (CellTiter-Glo, 72 h); assay type: cell-based, human; conditions: Homo sapiens, HCT-116, 72 h
Experimental: (§1) Cells were seeded in 96-well plates at the densities and media conditions indicated in Table 11 in McCoy's 5A containing either 10% FBS or 1% charcoal-stripped FBS (CS-FBS), and allowed to adhere overnight prior to addition of compound or vehicle control. Compounds were prepared from DMSO stocks to give the desired final concentrations. The final DMSO concentration was constant at 0.1%. Test compounds were incubated with the cells for 72 h at 37° C., 5% CO2 in a humidified atmosphere. CellTiter-Glo® reagent (Promega, Madison, Wis.) was added according to manufacturer's instructions and luminescence detected using the BMG FLUOstar plate reader (BMG Labtech, Ortenberg, Germany). The average media only background value was deducted and the data analysed using a 4-parameter logistic equation in GraphPad Prism (GraphPad Software, La Jolla, Calif.).

[2] = Toxicity (body weight, deaths, clinical signs) in the HCT116 xenograft study; assay type: in vivo, mice; conditions: for Deaths NTR / Deaths TR: po, 45 days
Experimental: Animals were weighed daily on Days 1-5, then twice per week until completion of the study. The mice were observed frequently for overt signs of any adverse, TR side effects, and clinical signs were recorded when observed. Individual BW loss was monitored as per protocol, and any animal whose weight exceeded the limits for acceptable BW loss was euthanized. Group mean BW loss also was monitored as per protocol. Dosing was to be suspended in any group that exceeded the limits for acceptable mean BW loss. If mean BW recovered, then dosing was to be resumed in that group, but at a lower dosage or less frequent dosing schedule. Acceptable toxicity for the maximum tolerated dose (MTD) was defined as a group mean BW loss of less than 20% during the study and not more than 10% TR deaths. A death was classified as TR if attributable to treatment side effects as evidenced by clinical signs and/or necropsy, or may also be classified as TR if due to unknown causes during the dosing period or within 14 days of the last dose. A death was classified as NTR if there was no evidence that death was related to treatment side effects. NTR deaths may be further characterized based on cause of death. A death was classified as NTRa if it resulted from an accident or human error. […] A death was classified as NTRu if the cause of death was unknown and there was no available evidence of death related to treatment side effects, metastasis, accident or human error, although death due to treatment side effects cannot be excluded.

HCT116 PIK3CA (+/−) = assay: Single agent proliferation assay (CellTiter-Glo, 72 h); assay type: cell-based, human; conditions: Homo sapiens, HCT-116, 72 h
Experimental: as §1, with “Compounds were prepared from DMSO stocks to give the desired final concentrations.” left out

CC(C)Nc1cc(-c2c[nH]c(C(=O)N[C@H](CO)c3cccc(Cl)c3)c2)c(Cl)cn1 [BVD-523]
Phosphorylation of ERK-dependent residues (T359/S363) in RSK 1 and 2 [1]: reduced | IC50 (parental HCT116 cells): 0.13 µM | IC50 (HCT116 Parental; 1% CS-FBS): 0.02 µM | IC50 (HCT116 Parental; 10% FBS): 0.17 µM | Tolerability relative to the MTD ([2]; Group 5: BVD-523 100 mg/kg p.o. bid to end, 100 mg/kg): above the MTD; also recorded: above the maximum tolerated dose | Adverse clinical signs ([2]; mouse, in vivo, 50 mg/kg): no noteworthy adverse clinical signs | Deaths NTR ([2]; mouse, in vivo, 50 mg/kg): 0 | Deaths TR ([2]; mouse, in vivo, 50 mg/kg): 0 | Deaths NTR ([2]; mouse, in vivo, 100 mg/kg): 0 | Deaths TR ([2]; mouse, in vivo, 100 mg/kg): 4 | IC50 (HCT116 PIK3CA (+/−); 1% CS-FBS): 0.01 µM | IC50 (HCT116 PIK3CA (+/−); 10% FBS): 0.12 µM
